These results are taken from ChEMBL document CHEMBL3217483, “Developing novel non-hydroxamate histone deacetylase inhibitors: the chelidamic warhead” (2012).

Test [1] has as its target T1, Histone deacetylase (Homo sapiens) (UniProt Q13547+O15379+Q9UBN7+Q92769+Q9UQL6+Q8WUI4+Q9BY41+Q96DB2+P56524+Q9UKV0+Q969S8). Briefly: Inhibition of HDAC in human U937 cells assessed as slight increase in histone H3 acetylation at 50 uM after 24 hrs by western blot analysis. In kind it is cell-based. As to conditions: U-937. On the technique in general: Immunoblotting shows a protein as a band on a membrane.

The target in test [2] is T1, Histone deacetylase (Homo sapiens). Briefly: Inhibition of HDAC in human U937 cells assessed as slight increase in alpha tubulin acetylation at 50 uM after 24 hrs by western blot analysis. In kind it is cell-based. Particulars: U-937.
Test [3] relates to U-937. Briefly: Cell cycle arrest in human U937 cells assessed as block in S phase at 50 uM after 30 hrs by propidium iodide staining based flow cytometry. In kind it is functional. Background: Flow cytometry measures light scatter and fluorescence of single cells or particles in a stream.
Test [4] concerns the target T1, Histone deacetylase (Homo sapiens). Briefly: Inhibition of HDAC in human U937 cells assessed as increase in histone H3 acetylation at 50 uM after 24 hrs by western blot analysis. As to conditions: U-937. In kind it is cell-based.
Test [5] shares this target. The test is described as follows: Inhibition of HDAC in human U937 cells assessed as increase in alpha tubulin acetylation at 50 uM after 24 hrs by western blot analysis. As to conditions: U-937. In kind it is cell-based.
Test [6] concerns U-937. The test is described as follows: Induction of apoptosis in human U937 cells after 30 hrs by caspase 3-7 activation method based FACS analysis. In kind it is functional, cell-based.
Test [7] deals with U-937. Briefly: Induction of apoptosis in human U937 cells at 50 uM after 30 hrs by caspase 3-7 activation method based FACS analysis. In kind it is functional.
In test [8] the test system is U-937. Briefly: Induction of granulocytic differentiation in human U937 cells assessed as CD11c positive/propidium iodide negative cells at 50 uM after 30 hrs by FACS analysis. In kind it is functional.
The subject of test [9] is U-937. Briefly: Induction of granulocytic differentiation in human U937 cells assessed as CD11c positive/propidium iodide negative cells after 30 hrs by FACS analysis. In kind it is functional, cell-based.

The structures appear in SMILES notation. Calls of active or inactive are those of the source. The rule behind the calls is not given here.

Turning to `COC(=O)c1cc(OCCCCCCCOc2ccc(NC(=O)Cc3ccccc3)cc2)cc(C(=O)OC)n1`, the inhibition entry in [1] and in [2] was “inactive” each time. Further, the outcome with U-937 [3] was Active.
On to `COC(=O)c1cc(OCCCCCOc2ccc(NC(=O)Cc3ccccc3)cc2)cc(C(=O)OC)n1`, for which the inhibition result in test [1] and in test [2] was “inactive” in each case. For the same compound, the outcome with U-937 [3] was Active.
Consider `COC(=O)c1cc(OCCCCSc2nc(-c3ccccc3)cc(=O)[nH]2)cc(C(=O)OC)n1`, for which the inhibition entry in test [4] and in test [5] was “Active” in each case. Besides, the Activity result in the test with U-937 [3] was “<=50%”; in the test with U-937 [6] it was “Dose-dependent effect”; in the test with U-937 [7] it was “<=50%”.
As to `O=C(O)c1cc(OCCCCSc2nc(-c3ccccc3)cc(=O)[nH]2)cc(C(=O)O)n1`, the inhibition result in test [1] and in test [2] was “inactive” throughout. Also, in the test on U-937 [3], the outcome was inactive.
Take `O=C(O)c1cc(OCCCCCSc2nc(-c3ccccc3)cc(=O)[nH]2)cc(C(=O)O)n1`: the inhibition result in test [1] and in test [2] was “inactive” throughout. Also, the result in the test on U-937 [3] was inactive.
Take `O=C(O)c1cc(OCCCSc2nc(-c3ccccc3)cc(=O)[nH]2)cc(C(=O)O)n1`: the inhibition result in [1] and in test [2] was “inactive” in each case. Also, the result in the test with U-937 [3] was inactive.
Regarding `COC(=O)c1cc(OCCCCCCCCOc2ccc(NC(=O)Cc3ccccc3)cc2)cc(C(=O)OC)n1`, the inhibition entry in test [1] and in test [2] was “inactive” each time. Also, in the test on U-937 [3], the outcome was Active.
Take `COC(=O)c1cc(OCCCOc2ccc(NC(=O)Cc3ccccc3)cc2)cc(C(=O)OC)n1`: the inhibition entry in test [1] and in test [2] was “inactive” in each case. In addition, in the test with U-937 [3], the result was Active.
As for `O=C(O)c1cc(OCCSc2nc(-c3ccccc3)cc(=O)[nH]2)cc(C(=O)O)n1`, the inhibition entry in [1] and in [2] was “inactive” in each case. Besides, the outcome in the test with U-937 [3] was inactive.
As for `COC(=O)c1cc(OCCCCOc2ccc(NC(=O)Cc3ccccc3)cc2)cc(C(=O)OC)n1`, the inhibition entry in test [1] and in test [2] was “inactive” in each case. In the test on U-937 [3], the outcome was Active.
In the case of `COC(=O)c1cc(OCCCCCCOc2ccc(NC(=O)Cc3ccccc3)cc2)cc(C(=O)OC)n1`, the inhibition result in test [1] and in test [2] was “inactive” in each case. The result in the test on U-937 [3] was Active.
In the case of `COC(=O)c1cc(OCCOc2ccc(NC(=O)Cc3ccccc3)cc2)cc(C(=O)OC)n1`, the inhibition result in test [1] and in test [2] was “inactive” each time. Besides, the result in the test with U-937 [3] was Active.
Take `COC(=O)c1cc(OCc2ccc(NC(=O)Cc3ccccc3)cc2)cc(C(=O)OC)n1`: the inhibition result in test [1] and in [2] was “inactive” each time. For the same compound, in the test with U-937 [3], the result was Active.
As for `COC(=O)c1cc(OCCCCCSc2nc(-c3ccccc3)cc(=O)[nH]2)cc(C(=O)OC)n1`, the inhibition result in test [4] and in test [5] was “Active” throughout. The Activity result in the test on U-937 [3] is “<=50%”; with U-937 [6] it was “Dose-dependent effect”; with U-937 [7], “<=50%”.
As for `COC(=O)c1cc(Oc2ccc(NC(=O)Cc3ccccc3)cc2)cc(C(=O)OC)n1`, the Activity result in the test on U-937 [8] is “<=40%”; in the test with U-937 [9], “Dose-dependent effect”. Further, the inhibition entry in test [1] and in test [2] was “inactive” each time. In the test with U-937 [3], the result was Active.
On to `COC(=O)c1cc(OCCCCC(=O)Nc2ccccc2)cc(C(=O)OC)n1`, for which the inhibition entry in test [1] and in [2] was “inactive” throughout. Also, the outcome in the test with U-937 [3] was Active.
Consider `COC(=O)c1cc(OCCSc2nc(-c3ccccc3)cc(=O)[nH]2)cc(C(=O)OC)n1`, for which the inhibition entry in test [4] and in test [5] was “Active” each time. Also, the results for the Activity entry in the test on U-937 [3], with U-937 [6] and with U-937 [7] were “<=50%”, “Dose-dependent effect” and “<=50%”, respectively.
`COC(=O)c1cc(OCCCSc2nc(-c3ccccc3)cc(=O)[nH]2)cc(C(=O)OC)n1`: the inhibition result in test [1] and in test [2] was “inactive” throughout.
